Measured values from patent publication US12661348B2, “Systemic formulation of a pyridinone derivate for TG2-related diseases” (Dr. Falk Pharma GmbH, priority 2020, dated 2026).

Experiments:
[1] = tested on: adult patients with Celiac Disease (CeD); assay: 6-week treatment of Celiac Disease patients under gluten challenge: ALT, AST, ALP levels; assay type: in vivo, human; conditions: for ALP, Change from baseline / ALT, Change from baseline / AST, Change from baseline / ALP, Difference versus placebo / ALT, Difference versus placebo / AST, Difference versus placebo: baseline to week 6; for Mean alanine aminotransferase (ALT) level, Baseline / Mean alkaline phosphatase (ALP) level, Baseline / Mean aspartate aminotransferase (AST) level, Baseline / Mean ALP level, Week 6 / Mean ALT level, Week 6 / Mean AST level, Week 6: safety population
Procedure: (§1) The efficacy and safety of a 6-week treatment with the compound of formula (I) in the hard gelatine capsule formulation described in example 2 was investigated in 160 adult patients with Celiac Disease (CeD). Patients, who were in clinical and histological remission at start of the study were challenged with 3 grams daily gluten intake and randomized to receive placebo or one of 3 doses of the compound of formula (I), i.e. 10 mg, 50 mg or 100 mg. Each morning after at least 6 hours of fasting, patients took the study drug orally, followed by one biscuit containing 3 g of gluten 30 minutes later, before breakfast. Throughout the 6-week study, patients were required to continue their strict gluten free diet.
as §1, with “described in the example 2” for “described in example 2”, “gluten free diet (see FIG. 12).” for “gluten free diet.”

[2] = Pharmacokinetic in healthy volunteers, multiple dosing over 7 days; assay type: in vivo, human; conditions: up to 100 mg
Procedure: The pharmacokinetic of (S,E)-methyl-7-(1-(2-(2-ethylbutylamino)-2-oxoethyl)-2-oxo-1,2-dihydro-pyridin-3-ylamino)-6-(1-methyl-1H-imidazole-5-carboxamido)-7-oxohept-2-enoate (compound of formula (I)) was investigated in healthy volunteers. Cohorts of 18 subjects each were treated with a daily dose of 10, 20, 50 and 100 mg compound of formula (I), respectively over a time period of 7 days. The determination of said compound in blood plasma was performed by means of a previously validated HPLC-MS/MS method.

[3] = tested on: fibrotic liver or kidney diseases in human; assay: Correlation of the anti-fibrotic effect in the animal model with the human pharmacokinetic; assay type: in vivo; conditions: from fibrotic area versus Cmax or AUC
Procedure: A comparison of the systemic exposure (Cmax, AUC) of (5,E)-methyl-7-(1-(2-(2-ethylbutylamino)-2-oxoethyl)-2-oxo-1,2-dihydro-pyridin-3-ylamino)-6-(1-methyl-1H-imidazole-5-carboxamido)-7-oxohept-2-enoate in dosage effective in the animal experiments with the systemic exposition which is achieved in human allows an estimation of the potential effective dose range.
In addition, the Cmax or AUC being achieved in human by the dosage of 10, 20, and 50 mg compound of formula (I) is shown.

[4] = Saturation solubility, pH-range 1 to 6.8, HPLC/UV; assay type: physicochemical; conditions: pH=6.8 (small intestine) compared with pH~1

systemic exposure in human versus dose [2]: increases linearly | saturation solubility [4]: much lower
SMILES: CCC(CC)CNC(=O)Cn1cccc(NC(=O)[C@H](CC/C=C/C(=O)OC)NC(=O)c2cncn2C)c1=O [compound of formula (I), (S,E)-methyl-7-(1-(2-(2-ethylbutylamino)-2-oxoethyl)-2-oxo-1,2-dihydro-pyridin-3-ylamino)-6-(1-methyl-1H-imidazole-5-carboxamido)-7-oxohept-2-enoate]
ALP, Change from baseline ([1]; 10 mg (N = 41)): −1.0 U/L | ALT, Change from baseline ([1]; 10 mg (N = 41)): −0.5 U/L | AST, Change from baseline ([1]; 10 mg (N = 41)): 0 U/L | Mean alanine aminotransferase (ALT) level, Baseline ([1]; 10 mg (N = 41)): 20.5 U/L | Mean alkaline phosphatase (ALP) level, Baseline ([1]; 10 mg (N = 41)): 60.0 U/L | Mean aspartate aminotransferase (AST) level, Baseline ([1]; 10 mg (N = 41)): 22.5 U/L | Mean ALP level, Week 6 ([1]; 10 mg (N = 41)): 59.3 U/L | Mean ALT level, Week 6 ([1]; 10 mg (N = 41)): 20.0 U/L | Mean AST level, Week 6 ([1]; 10 mg (N = 41)): 22.5 U/L | Mean ALT level, Week 10 (Follow-up) ([1]; 10 mg (N = 41)): 19.7 U/L | Mean AST level, Week 10 (Follow-up) ([1]; 10 mg (N = 41)): 20.6 U/L | ALP, Difference versus placebo ([1]; 10 mg versus placebo): −2.6 U/L | ALT, Difference versus placebo ([1]; 10 mg versus placebo, P value 0.0019): −4.4 U/L | AST, Difference versus placebo ([1]; 10 mg versus placebo, P value 0.0448): −3.2 U/L | ALP, Change from baseline ([1]; 50 mg (N = 41)): −0.5 U/L | ALT, Change from baseline ([1]; 50 mg (N = 41)): 0.8 U/L | AST, Change from baseline ([1]; 50 mg (N = 41)): 1.0 U/L | Mean alanine aminotransferase (ALT) level, Baseline ([1]; 50 mg (N = 41)): 21.4 U/L | Mean alkaline phosphatase (ALP) level, Baseline ([1]; 50 mg (N = 41)): 57.8 U/L | Mean aspartate aminotransferase (AST) level, Baseline ([1]; 50 mg (N = 41)): 22.6 U/L | Mean ALP level, Week 6 ([1]; 50 mg (N = 41)): 57.3 U/L | Mean ALT level, Week 6 ([1]; 50 mg (N = 41)): 22.2 U/L | Mean AST level, Week 6 ([1]; 50 mg (N = 41)): 23.6 U/L | Mean ALT level, Week 10 (Follow-up) ([1]; 50 mg (N = 41)): 21.7 U/L | Mean AST level, Week 10 (Follow-up) ([1]; 50 mg (N = 41)): 21.9 U/L | ALP, Difference versus placebo ([1]; 50 mg versus placebo): −2.8 U/L | ALT, Difference versus placebo ([1]; 50 mg versus placebo, P value 0.0069): −3.8 U/L | AST, Difference versus placebo ([1]; 50 mg versus placebo, P value 0.1423): −2.2 U/L | ALP, Change from baseline ([1]; 100 mg (N = 40)): −0.5 U/L | ALT, Change from baseline ([1]; 100 mg (N = 40)): −2.6 U/L | AST, Change from baseline ([1]; 100 mg (N = 40)): −0.4 U/L | Mean alanine aminotransferase (ALT) level, Baseline ([1]; 100 mg (N = 40)): 26.3 U/L | Mean alkaline phosphatase (ALP) level, Baseline ([1]; 100 mg (N = 40)): 62.7 U/L | Mean aspartate aminotransferase (AST) level, Baseline ([1]; 100 mg (N = 40)): 26.8 U/L | Mean ALP level, Week 6 ([1]; 100 mg (N = 40)): 62.3 U/L | Mean ALT level, Week 6 ([1]; 100 mg (N = 40)): 23.7 U/L | Mean AST level, Week 6 ([1]; 100 mg (N = 40)): 26.5 U/L | Mean ALT level, Week 10 (Follow-up) ([1]; 100 mg (N = 40)): 23.9 U/L | Mean AST level, Week 10 (Follow-up) ([1]; 100 mg (N = 40)): 24.3 U/L | ALP, Difference versus placebo ([1]; 100 mg versus placebo): −2.8 U/L | ALT, Difference versus placebo ([1]; 100 mg versus placebo, P value 0.0022): −4.3 U/L | AST, Difference versus placebo ([1]; 100 mg versus placebo, P value 0.8551): 0.3 U/L | elevation of alanine aminotransferase (ALT) from baseline to week 6 ([1]; 10, 50, 100 mg groups, gluten challenge, elevation seen in placebo group): not observed | difference between each drug group and placebo in ALT ([1]; P<0.01 for all comparisons): statistically significant | levels of AST, ALT, total protein ([1]; oral, doses of 10, 50 and 100 mg in human): significantly reduced | human dosage at which the anti-fibrotic effect shown in the animal model can be achieved [3]: 20 mg
